pEC50: −log10 of the molar value. Active and inactive are the calls of the source. No cut-off for these calls is given here.

Drawing on ChEMBL document CHEMBL6177981, “Bardoxolone Derivatives as Novel Pseudo-Natural Necroptosis Inhibitors by Destabilizing HSP90 Client Proteins” (J Med Chem, 2025), this text covers EC50, inhibition and Activity for two compounds.

Experiment [1] deals with L929. Description: Anti-necroptotic activity in TZ-induced mouse L929 cells assessed as increase in cell viability preincubated with Z-VAD-FMK followed by mTNFalpha stimulation for 4 hrs and measured after compound addition by CellTiter-Lumi luminescent cell viability assay. Format: functional, cell-based.
In experiment [2] the test system is HT-29. Description: Anti-necroptotic activity in TSZ-induced human HT-29 cells assessed as increase in cell viability preincubated with Z-VAD-FMK and SM164 for 30 mins followed by TNFalpha stimulation for 12 hrs and measured after compound addition by CellTiter-Lumi luminescent cell viability assay. Format: functional, cell-based.
The target of experiment [3] is T1, Mixed lineage kinase domain-like protein (Homo sapiens) (UniProt Q8NB16).
T1 sequence (whole entry): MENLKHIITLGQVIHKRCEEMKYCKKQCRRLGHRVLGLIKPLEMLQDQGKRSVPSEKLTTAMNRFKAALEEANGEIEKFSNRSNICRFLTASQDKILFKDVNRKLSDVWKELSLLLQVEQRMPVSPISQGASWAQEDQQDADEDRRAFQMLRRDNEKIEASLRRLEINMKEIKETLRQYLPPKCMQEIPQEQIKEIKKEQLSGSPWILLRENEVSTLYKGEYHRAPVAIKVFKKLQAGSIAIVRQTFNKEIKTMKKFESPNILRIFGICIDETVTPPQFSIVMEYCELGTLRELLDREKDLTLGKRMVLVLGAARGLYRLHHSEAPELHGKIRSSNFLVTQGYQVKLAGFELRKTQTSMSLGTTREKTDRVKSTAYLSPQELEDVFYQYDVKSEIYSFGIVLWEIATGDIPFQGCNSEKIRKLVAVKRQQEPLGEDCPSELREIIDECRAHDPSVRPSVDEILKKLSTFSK
Description: Inhibition of MLKL phosphorylation at S358 residue in TSZ-induced human HT-29 cells at 10 uM preincubated with compound followed by Z-VAD-FMK, SM164 and TNFalpha stimulation and measured after 6 hrs by Western blot analysis. Format: cell-based. (In western blotting, separated proteins are transferred to a membrane and probed.)

Experiment [4] concerns the target T2, Receptor-interacting serine/threonine-protein kinase 1 (Homo sapiens) (UniProt Q13546).
T2 sequence (whole entry): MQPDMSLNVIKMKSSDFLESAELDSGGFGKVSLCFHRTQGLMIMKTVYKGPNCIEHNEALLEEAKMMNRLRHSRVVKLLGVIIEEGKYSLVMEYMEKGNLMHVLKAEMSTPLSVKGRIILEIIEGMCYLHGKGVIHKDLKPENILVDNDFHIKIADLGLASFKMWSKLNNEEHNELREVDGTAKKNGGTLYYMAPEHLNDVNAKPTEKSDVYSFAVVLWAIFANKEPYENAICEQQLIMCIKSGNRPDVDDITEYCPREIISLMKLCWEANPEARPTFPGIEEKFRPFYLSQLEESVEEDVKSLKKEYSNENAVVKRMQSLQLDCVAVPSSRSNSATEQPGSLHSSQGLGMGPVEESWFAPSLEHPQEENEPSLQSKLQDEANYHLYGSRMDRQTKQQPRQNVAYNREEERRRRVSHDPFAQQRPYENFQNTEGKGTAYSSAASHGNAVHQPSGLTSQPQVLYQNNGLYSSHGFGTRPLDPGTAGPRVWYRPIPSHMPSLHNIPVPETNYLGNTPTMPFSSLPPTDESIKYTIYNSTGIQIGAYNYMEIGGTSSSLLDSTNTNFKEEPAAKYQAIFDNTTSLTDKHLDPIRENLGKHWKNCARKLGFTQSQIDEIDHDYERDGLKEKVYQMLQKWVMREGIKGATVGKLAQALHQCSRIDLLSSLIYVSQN
Description: Inhibition of RIPK1 phosphorylation at S166 residue in TSZ-induced human HT-29 cells at 10 uM preincubated with compound followed by Z-VAD-FMK, SM164 and TNFalpha stimulation and measured after 6 hrs by Western blot analysis. It counts as cell-based.

The target of experiment [5] is Heat shock protein HSP90 (Homo sapiens) (UniProt P07900+P08238). Description: Inhibition of HSP90 in TSZ-induced human HT-29 cells assessed as reduction in EGFR protein level at 10 uM preincubated with compound followed by Z-VAD-FMK, SM164 and TNFalpha stimulation and measured after 6 hrs by Western blot analysis. Format: cell-based.
The test system of experiment [6] is L929. Description: Anti-necroptotic activity in TZ-induced mouse L929 cells assessed as protection against cell death at 10 uM measured within 5 hrs by Live-cell super-resolution panoramic microscopic analysis. It counts as functional, cell-based.
Experiment [7] has as its target Receptor-interacting serine/threonine-protein kinase 3 (Homo sapiens) (UniProt Q9Y572). Briefly: Inhibition of RIPK3 phosphorylation at S227 residue in TSZ-induced human HT-29 cells at 10 uM preincubated with compound followed by Z-VAD-FMK, SM164 and TNFalpha stimulation and measured after 6 hrs by Western blot analysis. It counts as cell-based.
The test system of experiment [8] is HT-29. Briefly: Effect on RIPK1 protein level in human HT-29 cells at 10 microg/ml incubated for 9 hrs by Western blot analysis. Format: functional, cell-based. As to conditions: dose 10.0 µg/ml.
Experiment [9] relates to HT-29. Description: Effect on MLKL protein level in human HT-29 cells at 10 microg/ml incubated for 9 hrs by Western blot analysis. As to conditions: dose 10.0 µg/ml. Format: functional, cell-based.
For experiment [10], the system named is HT-29. Briefly: Effect on RIPK3 protein level in human HT-29 cells at 10 microg/ml incubated for 9 hrs by Western blot analysis. It counts as functional, cell-based. The settings on record: dose 10.0 µg/ml.

Chain of Receptor-interacting serine/threonine-protein kinase 3 (Homo sapiens) (Q9Y572 whole entry, looked up): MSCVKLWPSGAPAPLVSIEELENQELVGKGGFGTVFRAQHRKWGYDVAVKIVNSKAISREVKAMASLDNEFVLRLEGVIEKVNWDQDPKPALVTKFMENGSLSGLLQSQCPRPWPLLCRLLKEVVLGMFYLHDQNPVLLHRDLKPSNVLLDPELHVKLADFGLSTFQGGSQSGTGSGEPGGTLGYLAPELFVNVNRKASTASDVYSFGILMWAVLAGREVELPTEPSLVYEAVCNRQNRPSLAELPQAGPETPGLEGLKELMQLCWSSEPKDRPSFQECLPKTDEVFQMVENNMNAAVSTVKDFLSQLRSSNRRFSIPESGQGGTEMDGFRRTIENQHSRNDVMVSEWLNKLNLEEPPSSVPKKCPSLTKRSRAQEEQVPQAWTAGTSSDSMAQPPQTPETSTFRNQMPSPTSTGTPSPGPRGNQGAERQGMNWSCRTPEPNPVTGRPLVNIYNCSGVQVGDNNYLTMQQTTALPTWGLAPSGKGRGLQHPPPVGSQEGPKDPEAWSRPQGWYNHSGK

With `CC1(C)CC[C@]2(C(=O)O)CC[C@]3(C)[C@H](C(=O)C=C4[C@@]5(C)C=C(C#N)C(=O)C(C)(C)[C@@H]5CC[C@]43C)[C@@H]2C1` [BARDOXOLONE], the negative logarithm of the EC50 (pEC50) with L929 [1] is under 5.00; with HT-29 [2], 5.60. For the same compound, the inhibition result in [3], in [4] and in [7] was “inactive” each time. Further, in experiment [5], the inhibition result was “Active”. The result in the experiment on L929 [6] was inactive.
As to `C[C@@H]1C[C@@H]([C@H](O)CC2CC(=O)NC(=O)C2)C(=O)[C@@H](C)C1`, the result in the experiment with HT-29 [8], with HT-29 [9] and in the experiment on HT-29 [10] was inactive.

The pEC50 is the EC50 on a negative log10 scale, so that one unit is a factor of ten.
